Test: gradient 5% acetonitrile 3 min, to 50% in 2 min, to 85% in 15 min, held 3 min, 100 µL/min
Settings: column: Zorbax Extend-C18 2.1 x 50 mm; eluents: water / acetonitrile, 0.1% formic acid
Summary of the method: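 Mixtures of ~100 pure standards were chromatographed on a Zorbax Extend-C18 column (2.1 × 50 mm, 1.8 μm) at 100 μL/min using water and acetonitrile, each with 0.1% formic acid. Detection used a quadrupole time-of-flight mass spectrometer in positive and negative ionization mode, and data collection spanned 3 months. Retention time was obtained from adduct peaks picked computationally and each checked manually.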

Cc1nc(-c2cccc(N3CC(C(=O)N4CCCc5ccccc54)CC3=O)c2)no1 (stereo not drawn)
RP-LC retention time: 783 s

O=C(Nc1c(-c2ccccc2)nc2ccc(Cl)cn12)c1ccco1
RP-LC retention time: 674 s

Clc1ccc(-c2nc(NC3CCCCC3)c3ccccc3n2)cc1
RP-LC retention time: 924 s

CCn1nccc1-c1cccc(-c2noc(CNS(=O)(=O)c3ccc(F)cc3)n2)c1
RP-LC retention time: 931 s

COc1ccc(C(O)Cn2ccn3nc(-c4ccc(C)c(C)c4)cc3c2=O)cc1 (stereo not drawn)
RP-LC retention time: 947 s

CCOc1cc(=O)n2c(c1C(=O)Nc1cc(OC)ccc1OC)CCCC2
RP-LC retention time: 727 s

COc1ccccc1C1(CNC(=O)c2ccco2)CCOCC1
RP-LC retention time: 709 s

COc1ccc(N2CCN(c3cc(C(=O)O)c4cc(NC(C)=O)ccc4n3)CC2)cc1
RP-LC retention time: 599 s

COc1ccc(NC(=O)N2CCCC2c2nc(-c3cccc(C)c3)no2)cc1 (stereo not drawn)
RP-LC retention time: 827 s

COc1ccc(-n2c(=O)n(C)c(=O)c3cc(C(=O)Nc4ccc(C)cc4F)cnc32)cc1
RP-LC retention time: 849 s

COc1ncccc1C(=O)N1CCC(C(=O)Nc2nccs2)CC1
RP-LC retention time: 605 s

COCc1noc([C@@H]2CC(F)(F)CN2C(=O)c2ocnc2C)n1
RP-LC retention time: 679 s

CC(=O)Nc1ccc2c(c1)CN(C(=O)c1ccccc1C(F)(F)F)C(C(=O)N(C)C)C2 (stereo not drawn)
RP-LC retention time: 675 s

NS(=O)(=O)c1ccc(CCNCc2ccc(-c3cc(Cl)cc(Cl)c3)o2)cc1
RP-LC retention time: 800 s

O=S(=O)(NCC1CCCO1)c1cccc2cccnc12 (stereo not drawn)
RP-LC retention time: 680 s

O=C(OCc1ccncc1)c1cn(-c2ccc(F)cc2)c(=O)c2ccccc12
RP-LC retention time: 703 s

Cc1cc(=O)n2c3ccccc3n(CC(O)CN3CCN(c4ccccc4)CC3)c2c1C#N (stereo not drawn)
RP-LC retention time: 670 s

Cc1ccc(N2C(=O)C3N=NN(Cc4nc(-c5ccccc5C)no4)C3C2=O)cc1Cl (stereo not drawn)
RP-LC retention time: 1140 s

Cc1cc(C)cc(NC(=O)C2CC(=O)N(CCc3c[nH]c4ccc(F)cc34)C2)c1 (stereo not drawn)
RP-LC retention time: 889 s

C[C@H]1CN(C(=O)Nc2ccc(F)cc2)C[C@@H]1c1nc(-c2cccnc2)no1
RP-LC retention time: 760 s

Cc1cccc(NC(=O)Nc2ccc(-c3cn4ccc(C)nc4n3)cc2)c1
RP-LC retention time: 670 s

Cc1cc(C)nc(Nc2nc(C(=O)O)cs2)n1
RP-LC retention time: 626 s

CCc1onc(C)c1C1CCCN1C(=O)c1cc(-c2ccc3c(c2)OCO3)on1 (stereo not drawn)
RP-LC retention time: 928 s

Cc1ccccc1S(=O)(=O)N1CCC2(CC1)CC(C)(O)CCO2 (stereo not drawn)
RP-LC retention time: 778 s

COCCn1cc(CCNC(=O)Nc2cccc(C)c2)c2cccnc21
RP-LC retention time: 728 s

CCN(CC)S(=O)(=O)c1ccc2c(c1)N(CC(=O)NC1CCCCCC1)C(=O)C1CCCCN21 (stereo not drawn)
RP-LC retention time: 1050 s

CCCS(=O)(=O)N1CCN(C(=O)c2cc(-c3ccc(OC)cc3)n[nH]2)CC1
RP-LC retention time: 745 s

Cc1ccc(-c2cc3c(=O)n(Cc4nc(-c5ccccc5)no4)ncn3n2)c(C)c1
RP-LC retention time: 1200 s

CCc1ccc(C2=C(C)C(N3CCC(NC(=O)C(C)(C)CC)CC3)=NS2(=O)=O)cc1
RP-LC retention time: 965 s

COc1ccc(OC)c(CNC(=O)Cc2cccn2-c2ccc(C)cc2)c1
RP-LC retention time: 750 s

CCC(=O)N1CCc2cc(-c3ccc(C(=O)NCCc4c(C)noc4C)cc3)ccc21
RP-LC retention time: 750 s

Cc1ccc(C(=O)CC2(O)C(=O)Nc3ccccc32)cc1C (stereo not drawn)
RP-LC retention time: 751 s

O=C(NC1CCCCC1)C1CCCN(C(=O)c2ccc(F)c(F)c2)C1 (stereo not drawn)
RP-LC retention time: 825 s

Cc1ccccc1CNS(=O)(=O)c1ccc2c(c1)C(=O)N(C)c1ncccc1O2
RP-LC retention time: 1010 s

CC1CCCN(C(=O)c2ccc(-n3cccn3)nc2)C1 (stereo not drawn)
RP-LC retention time: 825 s

Cc1ccc(CN2C[C@]34C=C[C@H](O3)[C@@H](C(=O)NCc3ccccc3)[C@H]4C2=O)cc1
RP-LC retention time: 822 s

Cn1cc(CC(=O)Nc2ccc(F)cc2)c2cccnc21
RP-LC retention time: 703 s

CCN1C(=O)COc2ccc(-c3noc(-c4ccc(OC)cc4)n3)cc21
RP-LC retention time: 1130 s

CCn1ccc2sc(C)c(C(=O)NC(C)c3ccc(C)cc3C)c2c1=O (stereo not drawn)
RP-LC retention time: 975 s

COc1ccc(S(=O)(=O)N2C[C@H]3CN(C(=O)Nc4cccc(OC)c4)C[C@@H](C2)O3)cc1
RP-LC retention time: 881 s

CCN(CC)C(=O)c1cnc2nc(C)ccc2c1Nc1ccc(CC(=O)O)cc1
RP-LC retention time: 1020 s

Cc1ccc(C)c(NS(=O)(=O)c2ccc(-c3c(C)noc3C)cc2)c1
RP-LC retention time: 996 s

CCC(C(=O)NCCN1CCOCC1)n1c2ccccc2c2cnn(C)c(=O)c21 (stereo not drawn)
RP-LC retention time: 617 s

CCc1ccccc1NS(=O)(=O)c1cc2n(c1)CCCNC2=O
RP-LC retention time: 663 s

Cc1ccc(-n2nnnc2CNS(=O)(=O)c2ccc(F)cc2F)cc1
RP-LC retention time: 792 s

COCC(=O)N(C1CCOCC1)C1CCN(S(=O)(=O)c2ccccc2C)CC1
RP-LC retention time: 737 s

COc1cc([C@@H]2c3cc4c(cc3[C@@H](O[C@@H]3O[C@@H]5COC(c6cccs6)O[C@H]5[C@H](O)[C@H]3O)[C@H]3COC(=O)[C@H]23)OCO4)cc(OC)c1O (stereo partly drawn)
RP-LC retention time: 780 s

Cc1cc2[nH]c(C(=O)NC(C)c3ccccc3)c(CN3CCOCC3)c2s1 (stereo not drawn)
RP-LC retention time: 688 s

O=C(C(=O)N1CCN(c2ccccc2Cl)CC1)c1c[nH]c2ccccc12
RP-LC retention time: 940 s

CC(C)Cn1c(=O)c(N2CCN(S(=O)(=O)c3ccccc3F)CC2)nc2ccncc21
RP-LC retention time: 743 s

O=C(CSc1nnc(N2CCN(C(=O)c3cccs3)CC2)s1)NCc1ccco1
RP-LC retention time: 642 s

COCCCNC(=O)C1c2ccccc2C(=O)N(Cc2ccccc2)C12CCCC2 (stereo not drawn)
RP-LC retention time: 846 s

CC1(C)C(=O)N(c2ccc(C#N)c(C(F)(F)F)c2)C(=O)N1CCCCO
RP-LC retention time: 888 s

COc1ccc(-n2c(=O)c3sccc3n(Cc3nc(-c4ccc(OC(C)C)cc4)no3)c2=O)cc1
RP-LC retention time: 1060 s

COc1ccc(-c2csc(NC(=O)CS(=O)(=O)c3ccc(Cl)cc3)n2)cc1OC
RP-LC retention time: 926 s

CC1CCN(S(=O)(=O)c2ccc(-c3nnc(C(=O)NCCc4cccs4)o3)cc2)CC1
RP-LC retention time: 1060 s

CCOC(=O)C1CCN(C(=O)COc2ccc(NC(=O)C3CC3)cn2)CC1
RP-LC retention time: 682 s

COC(=O)c1c(NCCc2ccc(Cl)cc2)c2cc(F)ccc2[nH]c1=O
RP-LC retention time: 857 s

Cc1ccc(-c2nnc(-c3nc(NCCc4cccs4)c4ccccc4n3)o2)cc1
RP-LC retention time: 1120 s

COc1ccc(NC(=O)c2nnc(CCCC(=O)NCCc3c[nH]c4ccc(Cl)cc34)s2)cc1
RP-LC retention time: 892 s

CCCCC(=O)Nc1cnc(N(CC)CC(=O)C(C)(C)C)c(C(=O)O)c1
RP-LC retention time: 628 s

CC1=C(c2ccccc2)S(=O)(=O)N=C1N1CCCN(C(=O)C2CCOC2)CC1 (stereo not drawn)
RP-LC retention time: 675 s

COc1ccc(-c2noc(Cc3nc(-c4ccc(Br)cc4)cs3)n2)c(OC)c1
RP-LC retention time: 1180 s

Cn1nc2n(c1=O)CCN(Cc1cn[nH]c1-c1ccc(F)cc1)C2
RP-LC retention time: 600 s

Clc1ccc(-c2ccc(CNCC3CCCO3)o2)c(Cl)c1 (stereo not drawn)
RP-LC retention time: 738 s

COCCc1nncn1C1CCN(S(=O)(=O)c2cccc(C(F)(F)F)c2)CC1
RP-LC retention time: 752 s

CCC(=O)n1nc(-c2cccc(C)c2)nc1N
RP-LC retention time: 890 s

C[C@H](Cc1ccc(O)c(O)c1)[C@@H](C)Cc1ccc(O)c(O)c1
RP-LC retention time: 878 s

O=C(Cc1cc(-c2ccc3c(c2)OCCO3)on1)N1CCN(C(=O)c2ccco2)CC1
RP-LC retention time: 680 s

O=C(O)c1cccc2c1CCN2C(=O)c1ccccc1
RP-LC retention time: 731 s

Cc1cccc(-c2nc(-c3ccc4c(c3)ncn4CCN3CCCC3)no2)c1
RP-LC retention time: 676 s

O=C1NC2(CCN(C(=O)Nc3ccc4c(c3)OCCO4)CC2)Oc2ccccc21
RP-LC retention time: 736 s

CSc1cccc(NC(=O)N2CC=C(c3cn(C)c4ncccc34)CC2)c1
RP-LC retention time: 873 s

O=C(NCC1(c2ccccc2)CCOCC1)c1cccc(C(F)(F)F)c1
RP-LC retention time: 852 s

Brc1ccc(-c2noc(CSc3nccn3-c3ccccc3)n2)cc1
RP-LC retention time: 1030 s

O=C(NCC1CCOCC1)Nc1cc(F)cc(F)c1
RP-LC retention time: 703 s

CC(C)CCNC(=O)C1CCCN(c2ccc(=O)n(-c3cccc(F)c3)n2)C1 (stereo not drawn)
RP-LC retention time: 868 s

O=C(COc1ccccc1-c1nnc(-c2ccccc2)o1)NCc1ccc2c(c1)OCO2
RP-LC retention time: 1030 s

COc1cccc(-c2cn3ccn(-c4ccc(Br)cc4)c(=O)c3n2)c1
RP-LC retention time: 866 s

COc1ccc(Cl)cc1NC(=O)NCCc1cn(C)c2ncccc12
RP-LC retention time: 756 s

CCCNC(=O)CCc1c(C)n(CC)c2nc(-c3ccccc3)nn2c1=O
RP-LC retention time: 697 s

COc1cc(NC(=O)C2CCCN(c3ncnc4c3nc3n4CCCCC3)C2)cc(OC)c1OC (stereo not drawn)
RP-LC retention time: 720 s

O=C(c1cc2c(s1)CCC(C(=O)N1CCN(C3CCCC3)CC1)C2)N1CCCC1 (stereo not drawn)
RP-LC retention time: 606 s

CCC(C)NC(=O)c1ccc(Cn2nc(C)c(S(=O)(=O)N(C)C)c2C)cc1 (stereo not drawn)
RP-LC retention time: 754 s

Cc1oc(C2CCN(S(=O)(=O)c3ccc(Cl)cc3)CC2)nc1C(=O)N1CCCC1
RP-LC retention time: 977 s

Cn1c(=O)n(C)c2cc(CNc3ccc(C(=O)O)cc3)ccc21
RP-LC retention time: 687 s

CCC(C)NC(=O)N1CCn2nnc(CCC(=O)N3CCOCC3)c2C1 (stereo not drawn)
RP-LC retention time: 598 s

NC(=O)Cn1c2ccccc2c2ncn(Cc3nc(-c4ccccc4)no3)c(=O)c21
RP-LC retention time: 730 s

— the METLIN SMRT retention time set (Domingo-Almenara et al. 2019)
